Results published in patent US20240060133A1, “METHODS FOR IDENTIFICATION AND TREATMENT OF BLEEDING IN ANIMALS” (WASHINGTON STATE UNIVERSITY, priority 2021, published 2024).

Tests used:
canine plasmin = biological target: T1, canine plasmin (Canis lupus familiaris, UniProt P80009); assay: Plasmin inhibition assay (microplate-based colorimetric kinetic assay); format: biochemical; conditions: substrate D-VLK-pNA, 37° C., preliminary studies, FIG. 1, read-out: IC50, concentration-dependent inhibition of plasmin activity
T1 construct: purchased Molecular Innovation, Novi, MI DPLM
T1 sequence (P80009 104-333 limits assumed): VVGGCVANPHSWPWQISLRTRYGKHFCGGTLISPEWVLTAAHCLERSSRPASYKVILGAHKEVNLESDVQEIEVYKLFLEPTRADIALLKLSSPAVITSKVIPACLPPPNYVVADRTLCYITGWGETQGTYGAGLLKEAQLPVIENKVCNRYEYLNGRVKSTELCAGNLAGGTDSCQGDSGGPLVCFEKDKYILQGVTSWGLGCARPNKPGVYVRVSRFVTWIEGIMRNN
T1 sequence (P80009 with tags, fused parts or gaps partner limits assumed): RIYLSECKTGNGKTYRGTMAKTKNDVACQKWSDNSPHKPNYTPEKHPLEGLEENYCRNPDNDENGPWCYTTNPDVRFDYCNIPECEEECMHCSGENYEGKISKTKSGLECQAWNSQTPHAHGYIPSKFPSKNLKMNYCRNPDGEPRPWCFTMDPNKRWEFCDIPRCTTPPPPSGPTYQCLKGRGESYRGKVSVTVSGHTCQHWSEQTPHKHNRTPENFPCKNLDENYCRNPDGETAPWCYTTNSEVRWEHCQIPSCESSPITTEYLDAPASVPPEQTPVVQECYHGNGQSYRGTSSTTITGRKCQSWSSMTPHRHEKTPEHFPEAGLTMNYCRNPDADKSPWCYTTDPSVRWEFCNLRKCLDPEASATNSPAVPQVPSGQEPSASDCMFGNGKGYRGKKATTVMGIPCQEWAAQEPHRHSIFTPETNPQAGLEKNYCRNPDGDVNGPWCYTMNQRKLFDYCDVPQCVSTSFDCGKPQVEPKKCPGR
Method: A microplate-based colorimetric kinetic assay was developed and validated to measure the potency of inhibition of canine plasmin by plasma based on a previously published method. Briefly, 2 μL of canine plasma diluted to 50 μL in phosphate-buffered saline (PBS) was added on ice to 96-well UV clear nonbinding plates (Cat. #655901, Greiner Bio-One, Monroe, NC). Then, 50 μL of canine plasmin (Cat. #DPLM, Molecular Innovation, Novi, MI) at 100 nM concentration in 50 μL PBS was added, mixed by pipetting, and incubated at 37° C. for 5 min. To this, 100 μL of prewarmed plasmin substrate (D-VLK-pNA, Molecular Innovation, Novi, MI) at 200 μM concentration in PBS was added, mixed, and immediately placed in a colorimetric plate reader (SpectraMax i3, Molecular Devices, San Jose, CA) set at 37° C. Absorbance at 405 nm was then monitored in each well over the next 5 minutes. Plasmin hydrolysis activity for each well was calculated from the fitted linear slope of the absorbance versus time curve over 5 minutes.
Preliminary studies confirmed concentration-dependent inhibition of plasmin activity by the antifibrinolytic aprotinin (Cat. #A1153, Sigma Aldrich, St Louis, MO) with an IC50 of approximately 500 nM (see FIG. 1). Plasma collected in sodium citrate and pooled from 2 male and 2 female beagle dogs was obtained from a commercial vendor (Biochemed Services, Winchester, VA). […]

[1] = tested on: delayed postoperative bleeding in Scottish deerhounds; assay: Scottish deerhound cases with delayed postoperative bleeding (health survey and veterinary records); format: in vivo, Scottish deerhound dogs; conditions: for hematocrit and platelet counts: SDH-2, 750 mg intravenous infusion; for hematocrit: SDH-4, continuous intravenous infusion plus transfusions of whole blood and plasma
Text: For the instant example, Scottish deerhounds with delayed postoperative bleeding and matched controls were identified through a survey distributed to members of the Scottish Deerhound Club of America. A subsection of this survey requested information regarding the surgical history of the dogs, occurrence of postoperative bleeding complications, and perioperative administration of antifibrinolytic drugs (EACA or tranexamic acid). A diagnosis of delayed postoperative bleeding, defined as unexpected bleeding from a surgical wound starting 1 to 4 days after the procedure, was based on review of the owner's description of the event, the veterinary medical record (if available), and therapeutic response to administration of antifibrinolytic drugs (if used). Dogs were excluded if the bleeding event occurred on the same day of surgery, or after more than 4 days following surgery.
The instant example utilizes the methods described in Example 1 to identify delayed postoperative bleeding cases in canines and controls. Completed health surveys from the owners of 260 Scottish deerhounds were reviewed to identify delayed postoperative bleeding cases and controls. Of the original 260 dogs evaluated, 105 dogs (40%) were identified that had undergone at least one surgical procedure, while 21 dogs (8%) had received two or more surgeries. Nine of 105 dogs (9%) with a surgical history were reported to have experienced postoperative bleeding and/or excessive bruising at least once after a surgical procedure. Of these, bleeding into the abdomen was first diagnosed within 8 hours after surgery in two dogs, while bleeding and/or bruising was not evident until at least the morning after surgery in the remaining 7 dogs. These latter 7 dogs were considered delayed postoperative bleeding cases and all had DNA samples available for case-control analysis. Of the 96 dogs that had undergone surgery without evidence for postoperative bleeding, 25 dogs (26%) had received prophylactic treatment with EACA, while 71 dogs (74%) had not received any antifibrinolytic drug. These latter 71 dogs were considered delayed postoperative bleeding controls. Of the 71 control dogs, 55 dogs had DNA samples available for case-control genetic analysis.
Case information for the seven dogs (SDH-1 to SDH-7) that met the inclusion/exclusion criteria for delayed postoperative bleeding are shown in Table 1.

[2] = tested on: delayed postoperative bleeding in greyhounds; conditions: 46 greyhounds, limb amputation for osteosarcoma, after introduction of the prophylactic treatment; cited from earlier work
[3] = SDH-2, Day 1-evening (after aminocaproic acid), 750 mg intravenous infusion
[4] = prophylactic antifibrinolytic given, individual dogs SDH-3 and SDH-6

For aprotinin, the IC50 (canine plasmin) was about 500 nM.
In the case of NCCCCCC(=O)O [EACA, 6-aminohexanoic acid], the “hematocrit and platelet counts” value ([1]; by Day 5) is reported as “within their normal range”, the “hematocrit and platelet counts” value ([1]; next morning (Day 2)) is reported as “significantly increased” and the “Hematocrit (%)” value [1, 3] is reported as 34.4%. For the same compound, the “Platelet count (×10^9/L)” value [1, 3] was 31 ×10^9/L, the “Hematocrit (%)” value ([1]; SDH-2, Day 2) was 41.7% and the “Platelet count (×10^9/L)” value ([1]; SDH-2, Day 2) was 125 ×10^9/L. The “Hematocrit (%)” value ([1]; SDH-2, Day 5) was 51.9%, the “Platelet count (×10^9/L)” value ([1]; SDH-2, Day 5) was 371 ×10^9/L and the “Hematocrit (%)” value ([1]; SDH-2, Week 5) was 50.4%. The “Platelet count (×10^9/L)” value ([1]; SDH-2, Week 5) was 276 ×10^9/L, the “bleeding after therapeutic treatment” value ([1]; SDH-3, castration, 500 mg orally every 8 hours for 5 days, with fluids, antibiotics, vitamin K) was “No further bleeding was observed” and the “bruising or delayed postoperative bleeding after prophylactic treatment” value ([1]; SDH-3, splenectomy, 500 mg intravenous infusion during procedure then 500 mg oral every 8 hours for 5 days) was “No excessive bruising or delayed postoperative bleeding were observed”. For the same compound, the hematocrit ([1]; after one month) was 60%, the hematocrit ([1]; at discharge after 5 days (15% before)) was 36% and the “bleeding after therapeutic treatment” value ([1]; SDH-6, sebaceous cyst removal, orally administered after bleeding) was “the bleeding resolved”. The “postoperative bleeding or bruising after prophylactic treatment” value ([1]; SDH-6, skin abscess surgery, pre-operative oral dose) was “No postoperative bleeding or bruising was observed”, the “bleeding after drug administration” value ([1]; dogs with delayed postoperative bleeding, EACA oral or injectable) was “stopped within hours” and the “Delayed bleeding?” value [1, 4] was “No”. For the same compound, the Outcome [1, 4] was “No complications”, the Outcome ([1]; therapeutic antifibrinolytic given after delayed bleeding, individual dogs SDH-2 to SDH-6) was “Responded to antifibrinolytic” and the incidence of bleeding [2] was 16%.
